Measurements from PMC7044277 (Nature Communications, 2020).
Several values for one entry are separate records, joined by “and”; a condition that tells them apart may be missing. Equal values may be shown once.

Experiments:
Assay type in all cases: cell-based
Set-up in all cases: GPCRome screening signal at PTGIR / GPCRome screening signal at PTH1R / GPCRome screening signal at PTH2R / GPCRome screening signal at QRFP / GPCRome screening signal at RXFP2 / GPCRome screening signal at RXFP3 / GPCRome screening signal at RXFP4 / GPCRome screening signal at S1PR2 / GPCRome screening signal at S1PR3 / GPCRome screening signal at S1PR4 / GPCRome screening signal at S1PR5 / GPCRome screening signal at SCTR / GPCRome screening signal at SSTR2 / GPCRome screening signal at SSSTR / GPCRome screening signal at SSTR4 / GPCRome screening signal at SSTR5 / GPCRome screening signal at SUCNR1 / GPCRome screening signal at TA1 / GPCRome screening signal at TAAR2 / GPCRome screening signal at TAAR5 / GPCRome screening signal at TAAR6 / GPCRome screening signal at TAAR8 / GPCRome screening signal at TACR1 / GPCRome screening signal at TACR2 / GPCRome screening signal at TACR3 / GPCRome screening signal at TBXA2R / GPCRome screening signal at TSHR / GPCRome screening signal at UTS2R / GPCRome screening signal at VIPR2 / GPCRome screening signal at GPR68 no V2 Tail / GPCRome screening signal at GRM2 / GPCRome screening signal at GRM3: reference not given here
320 non-olfactory GPCRs [1] = molecular target: 320 non-olfactory GPCRs (Homo sapiens, UniProt O95977); conditions: receptor S1PR4
320 non-olfactory GPCRs [2] = molecular target: T1, 320 non-olfactory GPCRs (Homo sapiens, UniProt Q9P1P5); conditions: receptor TAAR2
T1 construct: expressed in transfected cells; host or cells: HTLA cells

320 non-olfactory GPCRs [3] = molecular target: T2, 320 non-olfactory GPCRs (Homo sapiens, UniProt Q8TDU9); conditions: receptor RXFP4
T2 construct: expressed in transfected cells; host or cells: HTLA cells

320 non-olfactory GPCRs [4] = molecular target: 320 non-olfactory GPCRs (Homo sapiens, UniProt P30874); conditions: receptor SSTR2
[5] = Fig_5f, single replicate values
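For GPCRome agonism screen response in this document: fold over basal response of each receptor without drug.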

Chain of 320 non-olfactory GPCRs (Homo sapiens, UniProt O95977) (O95977 whole entry): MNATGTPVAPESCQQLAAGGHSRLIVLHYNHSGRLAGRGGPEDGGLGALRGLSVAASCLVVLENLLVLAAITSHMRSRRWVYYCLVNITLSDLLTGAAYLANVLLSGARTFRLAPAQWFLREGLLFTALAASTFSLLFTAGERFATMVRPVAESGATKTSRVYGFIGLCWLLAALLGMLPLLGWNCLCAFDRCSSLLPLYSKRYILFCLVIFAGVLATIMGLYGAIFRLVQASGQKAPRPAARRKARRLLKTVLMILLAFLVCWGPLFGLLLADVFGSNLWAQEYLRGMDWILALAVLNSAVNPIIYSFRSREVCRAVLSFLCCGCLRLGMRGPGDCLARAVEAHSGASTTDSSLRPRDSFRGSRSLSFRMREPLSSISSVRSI
T2 sequence (Q8TDU9 whole entry): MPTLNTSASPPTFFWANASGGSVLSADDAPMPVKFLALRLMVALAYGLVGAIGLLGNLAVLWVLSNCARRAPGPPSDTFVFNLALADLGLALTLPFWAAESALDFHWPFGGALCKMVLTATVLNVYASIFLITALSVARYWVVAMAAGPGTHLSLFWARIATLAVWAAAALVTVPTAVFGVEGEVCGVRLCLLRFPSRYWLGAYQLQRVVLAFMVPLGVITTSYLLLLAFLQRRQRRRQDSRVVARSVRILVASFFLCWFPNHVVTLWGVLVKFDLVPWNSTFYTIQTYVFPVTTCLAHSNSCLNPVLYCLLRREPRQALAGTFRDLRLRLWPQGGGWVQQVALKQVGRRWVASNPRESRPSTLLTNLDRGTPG
T1 sequence (Q9P1P5 whole entry): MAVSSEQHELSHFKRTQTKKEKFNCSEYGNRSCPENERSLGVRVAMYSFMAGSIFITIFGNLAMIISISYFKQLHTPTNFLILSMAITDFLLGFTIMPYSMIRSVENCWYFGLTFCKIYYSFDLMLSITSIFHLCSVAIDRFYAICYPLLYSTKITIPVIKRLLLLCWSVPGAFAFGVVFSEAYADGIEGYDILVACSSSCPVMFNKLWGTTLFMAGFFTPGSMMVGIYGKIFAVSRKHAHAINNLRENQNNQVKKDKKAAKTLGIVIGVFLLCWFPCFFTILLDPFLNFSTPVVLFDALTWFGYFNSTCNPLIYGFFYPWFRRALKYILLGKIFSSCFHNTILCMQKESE
Chain of 320 non-olfactory GPCRs (Homo sapiens, UniProt P30874) (P30874 whole entry): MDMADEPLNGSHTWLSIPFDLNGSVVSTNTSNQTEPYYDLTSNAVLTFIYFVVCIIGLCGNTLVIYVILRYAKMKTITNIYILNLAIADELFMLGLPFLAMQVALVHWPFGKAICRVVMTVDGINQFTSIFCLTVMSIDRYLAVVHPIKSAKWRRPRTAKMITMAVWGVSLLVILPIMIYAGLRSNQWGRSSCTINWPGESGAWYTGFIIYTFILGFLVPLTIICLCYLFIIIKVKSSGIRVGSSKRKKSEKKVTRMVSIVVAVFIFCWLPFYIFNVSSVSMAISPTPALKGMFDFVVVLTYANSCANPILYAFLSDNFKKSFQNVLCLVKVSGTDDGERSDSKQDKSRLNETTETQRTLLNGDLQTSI

| GPCRome screening signal at S1PR4 (320 non-olfactory GPCRs [1]; [5]) | GPCRome screening signal at TAAR2 (320 non-olfactory GPCRs [2]; [5]) | GPCRome screening signal at RXFP4 (320 non-olfactory GPCRs [3]; [5]) | GPCRome screening signal at SSTR2 (320 non-olfactory GPCRs [4]; [5]) | Compound | GPCRome agonism screen response (320 non-olfactory GPCRs [1]; replicate values, Fig_4g) | GPCRome agonism screen response (320 non-olfactory GPCRs [2]; replicate values, Fig_4g) | GPCRome agonism screen response (320 non-olfactory GPCRs [3]; replicate values, Fig_4g) | GPCRome agonism screen response (320 non-olfactory GPCRs [4]; replicate values, Fig_4g) |
| --- | --- | --- | --- | --- | --- | --- | --- | --- |
| 1.441 and 1.208 and 0.7517 and 1.693 | 1.515 and 0.6858 and 1.3165 and 0.7903 | 0.4319 and 1.123 and 0.5997 and 0.5278 | 1.092 and 1.759 and 1.157 and 0.8246 | CCOc1ccccc1CCC(C)NCC1(O)CCCCC1.Cl (racemic) [Fig_5f] |  |  |  |  |
|  |  |  |  | CCOc1cccc2cc(C(C)NCC3(O)CCCCC3)oc12 (centres unmarked) [O4LE6] | 0.2093 and 0.09901 and 4.053 and 0.7997 | 2.656 and 0.9121 and 0.6733 and 0.6661 | 0.5888 and 1.446 and 0.8124 and 1.384 | 0.9255 and 0.9659 and 1.077 and 0.7883 |
